In US9695155B2, “Herbicidal substituted pyrimidinyloxy benzene compounds” (E. I. DU PONT DE NEMOURS AND COMPANY, priority 2013, dated 2017):

Tests used:
[1] = system: sedge, umbrella; assay: Test B flooded paddy test; format: in vivo, Cyperus difformis; details: Flood, 250 g ai/ha; 0 to 100 scale where 0 is no effect and 100 is complete control
How it was run: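 Visual ratings on a 0 to 100 scale, where 100 means complete control, compared treated plants with controls after 13 to 15 days in a greenhouse. Treatment went into paddy water 3 cm deep over the soil, applied to plants at the 2-leaf stage.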

[2] = system: velvetleaf; assay: Test C postemergence; format: in vivo, Abutilon theophrasti; details: for Plant response rating, Velvetleaf / Velvetleaf plant response rating: scale 0 to 100 (0 no effect, 100 complete control)
How it was run: (§1)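 Greenhouse herbicide screen. Pre: seeded loam/sand, sprayed at planting. Post: 1–4 leaf plants (2–18 cm) in peat-based mix. Formulation: solvent mixture + surfactant, non-phytotoxic. Readout: visual % control vs untreated, 13–15 d; dash = not tested.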

[3] = system: soybean; assay: Test C preemergence; format: in vivo, Glycine max; details: for Soybean plant response rating: preemergence; for Plant response rating, Soybean: Preemergence, 31 g ai/ha, scale 0 to 100, 0 no effect, 100 complete control
How it was run: as §1

[4] = system: oilseed rape; assay: Test C postemergence; format: in vivo, Brassica napus; details: for Plant response rating, Oilseed Rape / Oilseed Rape plant response rating: scale 0 to 100 (0 no effect, 100 complete control)
How it was run: as §1

[5] = system: waterhemp; assay: Test C preemergence; format: in vivo, Amaranthus rudis; details: for Waterhemp plant response rating: preemergence; for Plant response rating, Waterhemp: Preemergence, 31 g ai/ha, scale 0 to 100, 0 no effect, 100 complete control
How it was run: as §1

[6] = system: barnyardgrass; assay: Test A postemergence; format: in vivo, Echinochloa crus-galli
How it was run: (§2)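 Greenhouse pot test, loam/sand soil. Formulation: non-phytotoxic solvent mix plus surfactant. Pre: directed spray onto soil after sowing. Post: plants at 1–2 leaf, 2–10 cm. Rated visually vs untreated controls at ~10 d, 0 (no effect) to 100 (complete control).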

[7] = system: blackgrass; assay: Test A postemergence; format: in vivo, Alopecurus myosuroides
How it was run: as §2

[8] = system: johnsongrass; assay: Test C preemergence; format: in vivo, Sorghum halepense; details: for Johnsongrass plant response rating: preemergence; for Plant response rating, Johnsongrass: Preemergence, 31 g ai/ha, scale 0 to 100, 0 no effect, 100 complete control
How it was run: as §1

[9] = system: chickweed; assay: Test C postemergence; format: in vivo, Stellaria media; details: for Chickweed plant response rating / Plant response rating, Chickweed: scale 0 to 100 (0 no effect, 100 complete control)
How it was run: as §1

[10] = system: oilseed rape; assay: Test C preemergence; format: in vivo, Brassica napus; details: for Oilseed Rape plant response rating: preemergence; for Plant response rating, Oilseed Rape: Preemergence, 31 g ai/ha, scale 0 to 100, 0 no effect, 100 complete control
How it was run: as §1

[11] = Postemergence, 31 g ai/ha, 13 to 15 days
[12] = 16 g ai/ha, scale 0 to 100 (0 no effect, 100 complete control)
[13] = 62 g ai/ha, scale 0 (no effect) to 100 (complete control)
[14] = 125 g ai/ha, scale 0 (no effect) to 100 (complete control)
[15] = 125 g ai/ha, 0 to 100 scale where 0 is no effect and 100 is complete control
[16] = 500 g ai/ha, 0 to 100 scale, 0 no effect, 100 complete control
[17] = 16 g ai/ha, postemergence, visual rating, 13 to 15 days
[18] = 500 g ai/ha, 0 to 100 scale where 0 is no effect and 100 is complete control
[19] = 16 g ai/ha, postemergence, 0 is no effect, 100 is complete control
[20] = 125 g ai/ha, postemergence, visual rating
[21] = 31 g ai/ha, 0 to 100 scale, 0 no effect, 100 complete control
[22] = 31 g ai/ha, postemergence, visual rating, 13 to 15 days
[23] = 1000 g ai/ha, 0 to 100 scale, 0 no effect, 100 complete control
[24] = Postemergence, 62 g ai/ha, 13 to 15 days
[25] = 125 g ai/ha, 0 to 100 scale, 0 no effect, 100 complete control

Row | SMILES | Plant response rating, Sedge, Umbrella [1] | Plant response rating (0 to 100), Velvetleaf ([2]; 125 g ai/ha, postemergence) | Plant response rating, Velvetleaf [2, 11] | Plant response rating, Velvetleaf ([2]; Postemergence, 62 g ai/ha) | Soybean plant response rating [3, 12] | Soybean plant response rating [3, 13] | Soybean plant response rating [3, 14] | Plant response rating, Soybean [3] | Plant response rating (0 to 100), Oilseed Rape ([4]; 125 g ai/ha, postemergence) | Plant response rating, Oilseed Rape [4, 11] | Plant response rating, Oilseed Rape ([4]; Postemergence, 62 g ai/ha) | Waterhemp plant response rating [5, 12] | Waterhemp plant response rating [5, 13] | Waterhemp plant response rating [5, 14] | Plant response rating, Waterhemp [5] | Plant response rating, Barnyardgrass [6, 15] | Plant response rating, Blackgrass [7, 15] | Johnsongrass plant response rating [8, 12] | Johnsongrass plant response rating [8, 13] | Plant response rating, Chickweed ([9]; Postemergence, 62 g ai/ha) | also measured
1 | FCc1cccc(Oc2ncc(Cl)cn2)c1-n1cc(Br)cn1 [Compound 83] | 45 | 65 | 55 | 50 | 5 | 60 | 75 | 10 | 80 | 50 | 55 | 75 | 100 | 100 | 100 | 90 | 100 | 0 | 50 | 60 | Plant response rating, Barnyardgrass [6, 16]: 100; Plant response rating, Blackgrass [7, 16]: 100; Johnsongrass plant response rating [8, 14]: 85; Plant response rating, Johnsongrass [8]: 0; Chickweed plant response rating [9, 17]: 35; Plant response rating (0 to 100), Chickweed ([9]; 125 g ai/ha, postemergence): 70; Plant response rating, Chickweed [9, 11]: 40; Oilseed Rape plant response rating [10, 12]: 75; Oilseed Rape plant response rating [10, 13]: 98; Oilseed Rape plant response rating [10, 14]: 100; Plant response rating, Oilseed Rape [10]: 95
2 | CCOc1cn(-c2c(Br)cccc2Oc2ncc(Cl)cn2)nn1 [Compound 84] | 30 | 90 | 45 | 70 | 0 | 60 | 70 | 20 | 60 | 20 | 45 | 100 | 100 | 100 | 75 | 70 | 80 | 0 | 40 | 40 | Plant response rating, Barnyardgrass [6, 16]: 100; Plant response rating, Blackgrass [7, 16]: 100; Johnsongrass plant response rating [8, 14]: 85; Plant response rating, Johnsongrass [8]: 20; Chickweed plant response rating [9, 17]: 10; Plant response rating (0 to 100), Chickweed ([9]; 125 g ai/ha, postemergence): 50; Plant response rating, Chickweed [9, 11]: 10; Oilseed Rape plant response rating [10, 12]: 50; Oilseed Rape plant response rating [10, 13]: 100; Oilseed Rape plant response rating [10, 14]: 100; Plant response rating, Oilseed Rape [10]: 85
3 | N#Cc1cccc(Oc2ncc(F)cn2)c1-n1cc(I)cn1 [Compound 86] | 65 | 65 | 25 | 65 | 35 | 75 | 85 | 45 | 45 | 40 | 60 | 100 | 100 | 100 | 100 | 90 | 90 | 10 | 60 | 60 | Plant response rating, Barnyardgrass [6, 18]: 100; Plant response rating, Blackgrass [7, 18]: 100; Johnsongrass plant response rating [8, 14]: 95; Plant response rating, Johnsongrass [8]: 20; Chickweed plant response rating [9, 17]: 40; Plant response rating (0 to 100), Chickweed ([9]; 125 g ai/ha, postemergence): 80; Plant response rating, Chickweed [9, 11]: 55; Oilseed Rape plant response rating [10, 12]: 25; Oilseed Rape plant response rating [10, 13]: 100; Oilseed Rape plant response rating [10, 14]: 100; Plant response rating, Oilseed Rape [10]: 100
4 | N#Cc1cccc(Oc2ncc(Br)cn2)c1-n1cc(I)cn1 [Compound 88] | 0 | 55 | 35 | 40 | 0 | 40 | 90 | 5 | 45 | 50 | 55 | 98 | 100 | 100 | 100 | 60 | 70 | 0 | 40 | 20 | Plant response rating, Barnyardgrass [6, 18]: 80; Plant response rating, Blackgrass [7, 18]: 100; Johnsongrass plant response rating [8, 14]: 85; Plant response rating, Johnsongrass [8]: 0; Chickweed plant response rating [9, 17]: 5; Plant response rating (0 to 100), Chickweed ([9]; 125 g ai/ha, postemergence): 90; Plant response rating, Chickweed [9, 11]: 15; Oilseed Rape plant response rating [10, 12]: 10; Oilseed Rape plant response rating [10, 13]: 70; Oilseed Rape plant response rating [10, 14]: 100; Plant response rating, Oilseed Rape [10]: 100
5 | FCc1cccc(Oc2ncc(Br)cn2)c1-n1cc(C(F)(F)F)cn1 [Compound 120] | 95 |  |  | 35 |  |  |  |  |  |  | 5 |  |  |  |  | 80 | 80 |  |  | 70 | Plant response rating (0 to 100), Velvetleaf [2, 19]: 10; Plant response rating, Velvetleaf [2, 20]: 50; Plant response rating (0 to 100), Oilseed Rape [4, 19]: 5; Plant response rating, Oilseed Rape [4, 20]: 15; Plant response rating, Barnyardgrass [6, 21]: 20; Plant response rating, Blackgrass [7, 21]: 60; Plant response rating (0 to 100), Chickweed [9, 19]: 40; Plant response rating, Chickweed [9, 20]: 80
6 | Fc1cccc(Oc2ncc(Cl)cn2)c1-n1cc(C2CC2)nn1 [Compound 155] | 80 |  |  | 70 |  |  |  |  |  |  | 50 |  |  |  |  |  |  |  |  | 75 | Plant response rating (0 to 100), Velvetleaf [2, 19]: 45; Velvetleaf plant response rating [2, 22]: 75; Plant response rating, Velvetleaf [2, 20]: 85; Plant response rating (0 to 100), Oilseed Rape [4, 19]: 60; Oilseed Rape plant response rating [4, 22]: 50; Plant response rating, Oilseed Rape [4, 20]: 80; Plant response rating, Barnyardgrass [6, 23]: 100; Plant response rating, Blackgrass [7, 23]: 100; Plant response rating (0 to 100), Chickweed [9, 19]: 90; Chickweed plant response rating [9, 22]: 80; Plant response rating, Chickweed [9, 20]: 90
7 | N#Cc1cccc(Oc2ncc(Cl)cn2)c1-n1cc(-n2ccc(C(F)(F)F)n2)cn1 [Compound 284] | 85 |  |  |  |  |  |  |  |  |  |  |  |  |  |  |  |  |  |  |  | Velvetleaf plant response rating [2, 22]: 15; Plant response rating, Velvetleaf [2, 20]: 30; Plant response rating (0 to 100), Velvetleaf ([2]; 250 g ai/ha, postemergence): 70; Plant response rating, Velvetleaf [2, 24]: 15; Oilseed Rape plant response rating [4, 22]: 70; Plant response rating, Oilseed Rape [4, 20]: 80; Plant response rating (0 to 100), Oilseed Rape ([4]; 250 g ai/ha, postemergence): 80; Plant response rating, Oilseed Rape [4, 24]: 70; Plant response rating, Barnyardgrass [6, 25]: 30; Plant response rating, Barnyardgrass [6, 18]: 90; Plant response rating, Blackgrass [7, 25]: 30; Plant response rating, Blackgrass [7, 18]: 70; Chickweed plant response rating [9, 22]: 65; Plant response rating, Chickweed [9, 20]: 100; Plant response rating (0 to 100), Chickweed ([9]; 250 g ai/ha, postemergence): 100; Plant response rating, Chickweed [9, 24]: 100
